Test results as given in article PMC7118115, “Tumor-penetrating peptide for systemic targeting of Tenascin-C” (Scientific Reports, 2020).

Columns and labels:
[1] = test system: WT-GBM; experiment: In vivo play-off phage auditioning, WT-GBM tumor; set-up: species or system murine WT-GBM glioblastoma in athymic nude mice; settings: phage-displayed peptide; equimolar mix, i.v. 1 × 10^10 pfu/mouse, 2 h circulation, perfusion; Ion-Torrent sequencing; mean, N = 3 mice
Procedure: (§1) Athymic nude mice (Hsd/Athymic Fox1 nu Harlan) were purchased from Envigo (Netherlands) and maintained under standard housing conditions of the Animal Facility of the Institute of Biomedicine and Translational Medicine, University of Tartu (Tartu, Estonia). For orthotropic GBM tumor models, we used NCH421K, P13, and P3 stem cell-like, WT-GBM cells. The individual GBM cells around 2–3 × 10^5 in 3 μL PBS were intracranially implanted into mice brain 2 mm right and 1 mm anterior to the bregma. U87-MG and PC3 subcutaneous models were induced by injecting 2–9 × 10^6 cells in 100 µl PBS subcutaneously into the right flank of 11–15 week old male and female nude mice. All animal experiments were performed in accordance with the procedures approved by the Committee of Animal Experimentation of Estonian Ministry of Agriculture, permits #42 and #48.
(§2) In vivo play-off was used for internally controlled and competitive systemic phage homing studies in mice bearing tumor xenografts. Phages displaying the candidate TNC-C binding peptides and control peptides were individually amplified and purified by precipitation with PEG-8000 (Sigma-Aldrich, St. Louis, MO, USA), followed by […] gradient ultracentrifugation and dialysis. The phages were pooled at equimolar representation (Table 1 for details) and injected iv at 1 × 10^10 pfu (in 200 µl PBS) in tumor-bearing mice, circulated for 2 h, followed by anesthesia and intracardial perfusion with DMEM. The tumors and organs were collected in lysogeny broth (LB) medium containing 1% NP40, and the tissues were homogenized using a hand-held homogenizer. Phages in the tissue lysate were amplified in E.coli, purified by precipitation with PEG-8000, and DNA was extracted using a DNA extraction kit (High Pure PCR Template Preparation Kit; Roche, Basel, Switzerland). Next-generation sequencing of phage genomic DNA with Ion Torrent system (Thermo Fisher Scientific, Waltham, MA, USA) was used to evaluate the representation of each peptide-phage in the input mixture, in tumors and control organs. The FASTQ data from Ion Torrent were processed using a custom python script that identified the barcodes, constant flanking residues, and extracted the reads of the correct length.

[2] = test system: Norm. brain; experiment: In vivo play-off phage auditioning, normal brain; set-up: species or system athymic nude mice; settings: phage-displayed peptide; equimolar mix, i.v. 1 × 10^10 pfu/mouse, 2 h circulation, perfusion; Ion-Torrent sequencing; mean, N = 3 mice
Procedure: as §2

[3] = test system: recombinant TNC-C; experiment: Cell-free phage binding to TNC-C; set-up: species or system human; settings: individual T7 phage clones; Ni-NTA magnetic beads coated with hexahistidine-tagged TNC-C
Procedure: For biopanning on recombinant human TNC-C, we used NNK-encoded CX7C and X7 peptide T7 phage libraries with diversity ~5 × 10^8. Throughout our screens, the selected phages were amplified following plate amplification protocol. The 1st and 4th rounds of biopanning were performed on TNC-C immobilized on Costar 96-Well ELISA plate (#3590, Corning Life Sciences, Tewksbury, MA, USA). Briefly, the multiwell plates were coated with 20 µg/ml recombinant TNC-C in 100 µl of PBS overnight at 4 °C, followed by blocking with 1% bovine serum albumin (BSA) in PBS overnight at 4 °C. The phage library (5 × 10^8 pfu in 100 µl of PBS-BSA) was incubated overnight at 4 °C, followed by 6 washes with PBS containing 1% BSA and 0.1% Tween-20 (washing buffer) to remove background phages, and by phage rescue and amplification in E. coli strain BLT5403 (Novagen, EMD Biosciences, MA, USA)[8]. The subsequent rounds of selection were performed on Ni-NTA Magnetic Agarose Beads (QIAGEN, Hilden, Germany) coated with His-6X tagged TNC-C (30 µg/10 µl beads) at room temperature for 1 h in 400 µl of PBS. The TNC-C beads were washed 3 times with washing buffer, followed by incubation with phages in (5 × 10^8 pfu in 100 µl in washing buffer) at room temperature for 1 h. The background phages were removed by rinsing 6 times with washing buffer, and the bound phages were eluted with 1 ml of PBS containing 500 mM Imidazole and 0.1% NP40.
The eluted phages were titered and amplified for a next round of selection. After 5 rounds of selection, peptide-encoding DNA from a set of 48 phage clones was subjected to Sanger sequencing of peptide-encoding phage DNA[18],[22]. For cell-free binding studies with individual phage clones were incubated with Ni-NTA magnetic beads coated with hexahistidine-tagged TNC-C as above. RPARPAR phage binding to NRP-1-coated beads was used as a positive control. Phage clones displaying heptaglycine peptide (GGGGGGG, G7), or insertless phage clones were used as negative controls. […]
Fig. S13. NRP -1-dependent internalization of PL3 -functionalized AgNPs […]
Supplementary Materials and Methods
Cloning, expression , and purification of TNC-C
Vector Construction. A pF1K (Promega, # FXC00319) derivative plasmid containing full -length cDNA of TNC was used for PCR amplification of cDNA region of TNC-C with Phusion Hot Start II High -Fidelity DNA Polymerase (Thermo Fisher Scientific Inc # F -537L; primer pairs:
5′- CTCCTCT […] -3′ and 5′ -
CAGACA CTCGAG TTATCA TGTAACAATCTC -3′ for domain TNC -C. NdeI and XhoI restriction sites underlined ). The fragments were cloned in the pET28a+ plasmid for TNC -C expression as a n N-terminally His -tagged protein .
Expression and purification of TNC-C. The pET28a+ TNC-C plasmid was used for transformation of E. coli BL21 Rosetta 2 (DE3) pLysS cells (Novagen, #70956). The protein expression was induced by addition of isopropyl β-D-1-thiogalactopyranoside (IPTG) (Sigma, # I6758) to 0.5 mM final concentration and the bacteria were culture d at 18 °C for 16h . Cells were […]
collected by centrifugation, resuspended in ice-cold IMAC buffer (25mM Tris-HCl, 400mM NaCl, 25mM imidazole pH 8, containing EDTA-free protease inhibitor cocktail and DNase I) and lysed by sonification (Bandelin Sonopuls HD 2070, Germany). The cleared bacterial lysate was purified using HiTrap IMAC HP column s (GE Healthcare # 17 -0920-05) on ÄKTA purification system (GE Healthcare ), and the eluate was dialyzed against PBS using 3.5 kDa cut - off 3mL Slide-A-Lyzer Dialysis Cassettes (Thermo Scientific #66330). TNC-C concentration was determined by bicinchoninic acid assay (Thermo Scientific #23227) , and the purity of the proteins was assessed by SDS -PAGE. Mass spectrometry and de novo peptide sequencing were used to confirm the size and sequence of the purified proteins . His-tagged NRP-1 b1b2 domain was expressed and purified as described (Teesalu et al., 2009) .
Single-chain antibodies: The cDNA sequences encoding TNC-C-G11-scFV were retrieved from […]

[4] = test system: P3 SCL; experiment: In vivo play-off phage auditioning, P3 SCL tumor; set-up: species or system P3 stem cell-like glioblastoma in athymic nude mice; settings: phage-displayed peptide; equimolar mix, i.v. 1 × 10^10 pfu/mouse, 2 h circulation, perfusion; Ion-Torrent sequencing; mean, N = 3 mice
Procedure: as §1, §2

[5] = test system: U87-MG; experiment: In vivo play-off phage auditioning, U87-MG tumor; set-up: species or system human glioblastoma in athymic nude mice; settings: phage-displayed peptide; equimolar mix, i.v. 1 × 10^10 pfu/mouse, 2 h circulation, perfusion; Ion-Torrent sequencing; mean, N = 3 mice
Procedure: as §1, §2

[6] = test system: P13; experiment: In vivo play-off phage auditioning, P13 tumor; set-up: species or system P13 glioblastoma in athymic nude mice; settings: phage-displayed peptide; equimolar mix, i.v. 1 × 10^10 pfu/mouse, 2 h circulation, perfusion; Ion-Torrent sequencing; mean, N = 3 mice
Procedure: as §1, §2

[7] = test system: PC3; experiment: In vivo play-off phage auditioning, PC3 tumor; set-up: species or system prostate carcinoma in athymic nude mice; settings: phage-displayed peptide; equimolar mix, i.v. 1 × 10^10 pfu/mouse, 2 h circulation, perfusion; Ion-Torrent sequencing; mean, N = 3 mice
Procedure: as §1, §2

[8] = target: recombinant b1b2 domain of neuropilin-1 (NRP-1); experiment: phage binding to immobilized recombinant protein (cell-free); settings: read off a plot
[9] = target: recombinant human Tenascin-C FnIII C domain (TNC-C), hexahistidine-tagged; experiment: as above; settings: read off a plot

| Substance | Representation of phage in tumors, WT-GBM [1] [fold G7 control phage] | Representation of phage in control brain tissue (Norm. brain) [2] [fold G7 control phage] | TNC-C binding (fold G7 control phage) [3] [fold G7 control phage] | Representation of phage in tumors, P3 SCL [4] [fold G7 control phage] | Representation of phage in tumors, U87-MG [5] [fold G7 control phage] | Representation of phage in tumors, P13 [6] [fold G7 control phage] | Representation of phage in tumors, PC3 [7] [fold G7 control phage] | percent of parent [8] [%] | percent of parent [9] [%] |
| --- | --- | --- | --- | --- | --- | --- | --- | --- | --- |
| RGRLVRA [Clone-45] | 3 | 0.1 | 737 | 0.3 | 0.8 | 0.4 | 1.8 |  |  |
| CSRRGILRAKPAAALE [Clone-4] | 1.5 | 0.1 | 4889 | 0.9 | 1.1 | 0.8 | 1.2 |  |  |
| AGRGRLVRAKLAAALE [Clone-5] | 23.9 | 0.0 | 5785 | 0.4 | 0.2 | 0.1 | 0.3 |  |  |
| T7 phage displaying PL3 peptide (AGRGRLVR) V7A |  |  |  |  |  |  |  | 180 | 76 |
| CQRMGVVGAKLAAALE [Clone 36] |  |  | 3928 |  |  |  |  |  |  |
| AGVGRLRRAKLAAALE [Clone-1] | 2.3 | 0.2 | 3259 | 0.9 | 1.0 | 0.9 | 1.4 |  |  |
| T7 phage displaying PL3 peptide (AGRGRLVR) L6A |  |  |  |  |  |  |  | 140 | 34 |
| GRLTRVR [Clone-46] | 1.9 | 0.1 | 115 | 0.5 | 0.9 | 0.5 | 0.9 |  |  |
| RRLVRVA [Clone-35] | 1.4 | 0.1 | 1223 | 0.3 | 0.6 | 0.4 | 0.9 |  |  |
| VGRVRFSRKLAAALE [Clone-30] | 2.5 | 0.1 | 3702 | 0.4 | 0.7 | 0.5 | 1.2 |  |  |
| CRGVLRRAKLAAALE [Clone-2] | 1.6 | 0.1 | 5955 | 0.4 | 0.7 | 0.4 | 0.9 |  |  |
| RGRLRRVE [Clone 44] |  |  | 886 |  |  |  |  |  |  |
| T7 phage displaying PL3 peptide (AGRGRLVR) R3A |  |  |  |  |  |  |  |  | 10 |
